{"source": "patent US10307350B2", "about": "“Morphogenetically active amorphous calcium polyphosphate nanoparticles for therapeutic applications” (NanotecMARIN GmbH, priority 2014, dated 2019)", "type_in_all_cases": "cell-based, mouse", "key": {"MC3T3 cells [1]": {"tested_on": "MC3T3 cells", "test": "Cell proliferation / cell viability XTT assay", "settings": "retinol 0.3 to 30 μM, absence of aCa-polyP-NP, 72 h", "method": "(§1) Mouse calvaria cells MC3T3-E1 cells (ATCC-CRL-2593) are used for the experiments and cultivated in a-MEM (Gibco—Invitrogen) containing 20% fetal calf serum [FCS] (Gibco). The medium contains 2 mM L-glutamine, 1 mM Na-pyruvate and 50 μg/ml of gentamycin. […] Reaching 80% confluency, the cells are detached using trypsin/EDTA and continuously subcultured at a density of 5·10^3 cells/ml. The cells are seeded at a density of 5·10^3 cells/well. Medium/serum change was every 3 d.\nThe aCa-polyP-NP are added at the indicated concentration to the cultures, usually 3 μg/ml. Retinol is added in parallel; it is dissolved at 1 mg/ml ethanol and then diluted in DMSO [dimethyl sulfoxide] at the indicated concentrations. […]\nCell proliferation can be determined, for example, by a colorimetric method based on the tetrazolium salt XTT (Cell Proliferation Kit II; Roche). The absorbance is determined at […] and subtracted form the background values (500 nm). In the experiments described in Examples, the viable cells have been determined after 72 h."}, "MC3T3 cells [2]": {"tested_on": "MC3T3 cells", "test": "Microscopic density of attached cells after 72 h", "settings": "single component: aCa-polyP-NP 3 μg/ml or retinol 10 μM", "method": "as §1\nThis synergistically-acting effect of the two test components can also be followed microscopically. In the absence of any of the components the density of the MC3T3 cells after the 72 h incubation is only low. […] Likewise low is the number of cells onto the plastic surface if 10 μM retinol is added."}, "[3]": {"tested_on": "collagen type III (COL-III)", "test": "Collagen expression RT-qPCR in MC3T3-E1 cells, collagen type III", "settings": "single component: 3 μM retinol alone, or polyP sample in the absence of retinol; untreated 0.17±0.02", "method": "Mouse calvaria cells MC3T3-E1 cells (ATCC-CRL-2593) are used for the experiments and cultivated in a-MEM (Gibco-Invitrogen) containing 20% fetal calf serum [FCS] (Gibco). The medium contains 2 mM L-glutamine, 1 mM Na-pyruvate and 50 μg/ml of gentamycin. […] Reaching 80% confluency, the cells are detached using trypsin/EDTA and continuously subcultured at a density of 5·10^3 cells/ml. The cells are seeded at a density of 5·10^3 cells/well. Medium/serum change was every 3 d. The aCa-polyP-NP are added at the indicated concentration to the cultures, usually 3 μg/ml. Retinol is added in parallel; it is dissolved at 1 mg/ml ethanol and then diluted in DMSO [dimethyl sulfoxide] at the indicated concentrations. […], Wang […], Kropf […]. […] Acta Biomaterialia 2011; 7:2661-2671) is studied in parallel. […] After a 5 d incubation period the cells were collected and subjected to RT-qPCR analyses. […] The effect of 3 μM retinol on Na-polyP and on different nanoparticles as well as on the retinol/nanospheres was tested in a comparative way. The expression level of collagen type III was determined by RT-qPCR (FIG. 11). The expression values are correlated to the expression of the house-keeping gene GAPDH. […] Then the ratios between the levels in the cells, exposed to retinol or the nanoparticles/nanospheres alone or together, have been calculated and plotted."}}}
{"smiles": "CC1=C(/C=C/C(C)=C/C=C/C(C)=C/CO)C(C)(C)CCC1", "note": "[retinol, all-trans retinol]", "values": [{"measurement": "growth rate of the MC3T3 cells", "setting": "MC3T3 cells [1]", "value": "did not change significantly"}, {"measurement": "density of the cells attached to the substrate", "setting": "MC3T3 cells [2]", "value": "low"}, {"measurement": "collagen type III expression level correlated to GAPDH", "setting": "[3]", "value": "0.25±0.03"}]}
